Experimental data as given in ChEMBL document CHEMBL1148157, “An analysis of cytotoxic botanical formulations used in the traditional medicine of ancient Persia as abortifacients” (J Nat Prod, 2004).
≈ marks a conversion by molar mass, not a printed value.

Assays:
Assay type in all cases: functional, cell-based
HT-29 = experiment: Growth inhibition of human HT29 cells
P388 = experiment: Growth inhibition of mouse P388 cells
[1] = Growth inhibition of human CNS cancer cells; details: Cancer cell lines
[2] = Growth inhibition of human colon cancer cells; details: Cancer cell lines
[3] = Growth inhibition of human lung cancer cells; details: Cancer cell lines
[4] = Growth inhibition of human breast cancer cells; details: Cancer cell lines
[5] = Growth inhibition of human prostate cancer cells; details: cancer cell lines

Compound | IC50 (HT-29) [ng/mL] | IC50 (P388) [ng/mL] | IC50 [1] [nM] | IC50 [2] [nM] | IC50 [3] [nM] | IC50 [4] [nM] | IC50 [5] [nmol]
COc1cc([C@@H]2c3cc4c(c(O)c3C[C@H]3COC(=O)[C@@H]32)OCO4)cc(OC)c1OC [BETA-PELTATIN A] | 2.5 (≈ 6.03 nM) | 2.5 (≈ 6.03 nM) | – | – | – | – | –
CC(=O)OC(C)(C)/C=C/C(=O)[C@](C)(O)[C@H]1[C@H](O)C[C@@]2(C)[C@@H]3CC=C4[C@H](C[C@H](O)C(=O)C4(C)C)[C@]3(C)C(=O)C[C@]12C [CUCURBITACIN B] | – | – | < 400 | < 400 | < 400 | < 400 | –
CC(C)(O)/C=C/C(=O)[C@](C)(O)[C@H]1[C@H](O)C[C@@]2(C)[C@@H]3CC=C4[C@@H](C[C@H](O)C(=O)C4(C)C)[C@]3(C)C(=O)C[C@]12C [CUCURBITACIN D] | – | – | < 400 | < 400 | < 400 | < 400 | –
CC(=O)OC(C)(C)/C=C/C(=O)[C@](C)(O)[C@H]1[C@H](O)C[C@@]2(C)[C@@H]3CC=C4[C@@H](C=C(O)C(=O)C4(C)C)[C@]3(C)C(=O)C[C@]12C [CUCURBITACIN E] | – | – | < 400 | < 400 | < 400 | < 400 | 7
CC(C)(O)/C=C/C(=O)[C@](C)(O)[C@H]1[C@H](O)C[C@@]2(C)[C@@H]3CC=C4[C@@H](C=C(O)C(=O)C4(C)C)[C@]3(C)C(=O)C[C@]12C [CUCURBITACIN I] | – | – | < 400 | < 400 | < 400 | < 400 | –
COc1cc([C@@H]2c3cc4c(cc3C[C@H]3COC(=O)[C@@H]32)OCO4)cc(OC)c1OC [DESOXYPODOPHYLLOTOXIN] | 2.5 (≈ 6.27 nM) | 2.5 (≈ 6.27 nM) | – | – | – | – | –
